Test results reported in ChEMBL document CHEMBL1201862, “PubChem BioAssay data set” (2004).
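Cultured in 96-well plates, cells were exposed to test compound for 48 hours across five concentrations. Here, GI50 denotes the concentration required for 50% inhibition of growth.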 The source made the active and inactive calls. Rule as the data show it: active = GI50 up to about 1.1 µM and inactive = higher.

Key:
Assay in all cases: NCI anticancer screen, dose series, 48 h
[1] = system: HOP-92
[2] = system: IGROV-1
[3] = system: MCF7
[4] = system: A549
[5] = system: UACC-62
[6] = system: SF-268
[7] = system: EKVX
[8] = system: OVCAR-4
[9] = system: SW-620
[10] = system: SK-OV-3
[11] = system: RPMI-8226
[12] = system: BT-549
[13] = system: MDA-MB-231
[14] = system: HCT-116
[15] = system: M14
[16] = system: SF-539
[17] = system: HL-60
[18] = system: OVCAR-8
[19] = system: NCI-H522

Measured: GI50

c1cc(-c2csc(-c3ccsc3)c2)cs1
inactive: [1] > 100 µM | [2] > 100 µM | [3] 20.3 µM | [4] > 100 µM | [5] > 100 µM | [6] > 100 µM | [7] > 100 µM | [8] > 100 µM | [9] > 100 µM | [10] > 100 µM | [11] > 100 µM | [12] > 100 µM | [13] > 100 µM | [14] > 100 µM | [15] 47 µM | [16] 36.5 µM | [17] > 100 µM | [18] > 100 µM

COc1c(N2CCCCC2)c2c(=O)c3ccccc3oc2c2cc(C)oc12
inactive: [1] 7.45 µM | [3] 16.7 µM | [4] 18.2 µM | [5] 17.8 µM | [6] 17.9 µM | [7] 25.9 µM | [8] 13.9 µM | [9] 8.81 µM | [10] 28.1 µM | [11] 5.94 µM | [12] 21.5 µM | [13] 5.26 µM | [14] 2.34 µM | [15] 14.8 µM | [16] 35.9 µM | [17] 20.9 µM | [18] 16.9 µM

COc1cccc2c3ccccc3c3nc[nH]c3c12
inactive: [1] 27.3 µM | [2] 41.4 µM | [3] 47.4 µM | [4] 36.2 µM | [5] 22.8 µM | [6] 62.1 µM | [7] > 48.3 µM | [8] > 88.7 µM | [9] 22.5 µM | [10] > 62.1 µM | [11] 21.9 µM | [12] > 71.1 µM | [13] 25.4 µM | [14] 29.8 µM | [15] 28.6 µM | [16] 18.2 µM | [19] 24.5 µM | [18] > 100 µM

COc1ccc(C(=O)O[C@H]2CC[C@@]3(C)[C@@H]4CC[C@H]5[C@]6(O)C[C@H](O)[C@@]7(O)[C@@H](CN8C[C@@H](C)CC[C@H]8[C@@]7(C)O)[C@]6(O)C[C@@]53OC24O)cc1OC [VERATRIDINE]
inactive: [1] > 100 µM | [2] > 100 µM | [3] > 100 µM | [4] > 100 µM | [5] > 100 µM | [6] > 100 µM | [7] > 100 µM | [8] > 100 µM | [9] > 100 µM | [10] > 100 µM | [11] 80.4 µM | [12] > 100 µM | [13] > 100 µM | [14] > 100 µM | [15] > 100 µM | [16] 82 µM | [19] > 100 µM | [18] > 100 µM
